Patent publication US5607926A, “Cephalosporin antibiotics” (Microcide Pharmaceuticals, Inc., priority 1995, dated 1997)
Values after ≈ are worked out from the molar mass of the structure shown. Like-named read-outs stand apart in the source and are kept apart here.

How the values were obtained:
S. aureus ATCC 29213 = experiment: In vitro antibacterial evaluation, MIC by agar dilution, S. aureus ATCC 29213; assay type: cell-based; conditions: Staphylococcus aureus, ATCC29213
Procedure, shortened: (§1)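 Minimum inhibitory concentrations came from the NCCLS agar dilution method in Mueller-Hinton agar. Each isolate received about 10^4 cfu per spot, and plates were read after 16-20 hours at 35°-36° C.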

[1] = system: S. aureus 76 (Meth^R)(lac^+); experiment: In vitro antibacterial evaluation, MIC by agar dilution, S. aureus 76; assay type: cell-based; conditions: Staphylococcus aureus, read-out: MIC
Procedure, shortened: as §1

[2] = system: S. aureus Col8A (Meth^S)(lac^-); experiment: In vitro antibacterial evaluation, MIC by agar dilution, S. aureus Col8A; assay type: cell-based; conditions: Staphylococcus aureus
Procedure, shortened: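 Agar dilution per NCCLS (1991): two-fold dilutions from 128 μg/mL down to ≤0.25 μg/mL in Mueller-Hinton agar, each level in duplicate. Spots of about 10^4 cfu of log-phase culture; 16-20 h at 35°-36° C. MIC in μg/ml is the lowest concentration inhibiting growth.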

S. haemolyticus (Meth^R) = experiment: In vitro antibacterial evaluation, MIC by agar dilution, S. haemolyticus; assay type: cell-based; conditions: Staphylococcus haemolyticus, read-out: MIC
Procedure, shortened: as §1

E. faecium ATCC 35667 = experiment: In vitro antibacterial evaluation, MIC by agar dilution, E. faecium ATCC 35667; assay type: cell-based; conditions: Enterococcus faecium, ATCC35667, read-out: MIC
Procedure, shortened: as §1

E. faecalis ATCC 29212 = experiment: In vitro antibacterial evaluation, MIC by agar dilution, E. faecalis ATCC 29212; assay type: cell-based; conditions: Enterococcus faecalis, ATCC29212; E. faecalis ATCC 29212; read-out: MIC
Procedure, shortened: as §1

E. coli ATCC 25922 = experiment: In vitro antibacterial evaluation, MIC by agar dilution, E. coli ATCC 25922; assay type: cell-based; conditions: Escherichia coli, ATCC25922, read-out: MIC
Procedure, shortened: as §1

P. aeruginosa ATCC 27853 = experiment: In vitro antibacterial evaluation, MIC by agar dilution, P. aeruginosa ATCC 27853; assay type: cell-based; conditions: Pseudomonas aeruginosa, ATCC27853, read-out: MIC
Procedure, shortened: as §1

[3] = system: methicillinsusceptible S. aureus strain ATCC 13709; experiment: In vivo antibacterial evaluation, murine model for lethal bacteremic peritonitis; parameters: species or system S. aureus in female Swiss-Webster mice; conditions: Staphylococcus aureus, ATCC13709, sc, 72 h, two equal SC doses at challenge and 2 hours later, mice, probit, read-out: ED50
Method: Groups of 5 female Swiss-Webster mice (Simonsen, Gilroy, Calif.) each are challenged by the intraperitoneal (IP) route with ten-fold increments of a bacterial inoculum. This permits calculation of the mean lethal dose (LD50) and the LD100. For preliminary evaluation of a new antibiotic, mice are challenged IP with an LD100 titer of bacteria. In two equal doses administered at the time of bacterial challenge and 2 hours later, groups of 10 mice each are treated subcutaneously with two-fold increments of the test drug and an antibiotic of known efficacy in mice and humans (i.e., positive control). Mice are observed for 72 h. Those alive at 72 h are considered long term survivors. The total drug dose in mg/kg that protects 50% of mice in a group from death is termed the mean protective dose (PD50). PD50 s are similarly determined for several pathogens. The quantitative endpoints for the new drug are then compared with those obtained with reference antibiotics.
Six ten-fold dilutions of inoculum suspended in 0.5 mL of sterilized 7% hog gastric mucin (Sigma) are injected IP in groups of 5 mice each. A control group of 5 mice receive mucin alone. Mice are observed for 72 h. Those alive at 72 h are considered long term survivors. The mean lethal dose (LD50) and 100% lethal dose (LD100) are determined by the probit test.
For antibiotic efficacy studies, mice are challenged IP with bacterial titers that will afford an LD100 for the test strain. In two equal doses administered at the time of bacterial challenge and 2 hours later, groups of 10 mice each are treated by the subcutaneous route (SC) with twofold increments of the test antibiotic; another group is treated similarly with a reference antibiotic of known efficacy in animals and man. Drug doses can range from 0.01 to 512 mg/kg. If the drug is poorly soluble, Tween 20 or propylene glycol will be employed to solubilize the drug. Animals are observed for 72 h. The 50% protective dose (PD50) is calculated in mg/kg by the probit method. The PD50 is the same as the 50% effective dose (ED50) and the 50% curative dose (CD50). Samples of blood from the hearts of all animals that die and from half the mice that survive are cultured on brain-heart infusion agar. Animals that received a protective dosage of the test drug will be alive at 72 h, although they may appear moderately ill to very ill during the observation period. […] Most of these mice will die within 6 to 48 h. Those alive at 72 h will be considered long term survivors.
(§2) data reported for challenge with methicillinsusceptible S. aureus strain

[4] = system: methicillinsusceptible S. aureus strain ATCC 13709; experiment: Challenge strain MIC; assay type: cell-based; conditions: Staphylococcus aureus
Method: The compounds of the invention were evaluated against several β-lactamresistant bacteria strains by determining the minimum inhibitory concentration (MIC, μg/ml) of each compound with respect to each strain. The MIC, the lowest concentration of antibiotic which inhibits growth of the test organism, was determined by the agar dilution method.
To determine the MIC for bacterial isolates, the test compound was incorporated in a series of two-fold dilutions into liquified Mueller-Hinton agar. Upon solidification, a number of different bacterial strains were spot inoculated with a replicating device onto the agar surface. […] The procedures used in these studies have been standardized by the National Committee for Clinical Laboratory Standards (NCCLS), as per the NCCLS publication entitled METHODS FOR DILUTION ANTIMICROBIAL SUSCEPTIBILITY TESTS (1991), which is incorporated herein by reference.
Aliquots of antimicrobial agents were prepared in phosphate buffered saline (PBS) at pH 7.2. Tween 20 or DMSO was used as a solubilizing vehicle as needed. Standard methods of vortexing, sonicating and gentle heat were used to facilitate solubilizing the test agent. Typically, the concentration of the stock solution was 10× that of the highest drug concentration tested. A 1.28 mg/mL stock solution was used with a subsequent highest working concentration of 128 μg/mL. Serial two-fold dilutions were done through ≤0.25 μg/mL. Each drug level was tested in duplicate. Two-fold drug dilutions were done in sterile 50 mL tubes with a final drug volume of 5 mL. Upon the addition of 45 mL of molten agar, a 10-fold dilution resulted. Two, 25 mL. plates were then poured into 15×150 mm square Petri plates with grids and allowed to harden.
A control plate with a reference drug, either cefotaxime, vancomycin or imipenem, was used as the positive growth control. Stock concentrations of reference antibiotics were prepared and frozen at -80° C. Upon preparation, the control plates were sealed and stored in the refrigerator for up to 1 week prior to use; however, imipenem control plates had to be prepared just prior to use. All test plates were used within 24 hours of preparation.
Satisfactory results were obtained where the inoculum contained about 10^4 colony forming units (cfu) ±0.5 logs. Starting with pure cultures of the test isolates on agar plates, a few isolated colonies were transferred to a tube of nutrient broth and allowed to grow 4-6 hours at 35°-36° C. to reach log-phase growth. Dropwise addition of the broth culture to PBS was done to match a 0.5 McFarland turbidity standard equal to 10^8 cfu/mL. This was further diluted ten-fold in PBS to reach a working inoculum concentration of 10^7 cfu/mL. When 1 μL of the working inoculum was applied to the agar surface a concentration of about 10^4 cfu per spot was obtained.
Disposable sterile 1 μL loops were used to inoculate test plates, with each isolate in a designated grid on the agar plate. An alternate method of inoculation involved the use of a replica plater, a device with 48 steel pins allowing the simultaneous inoculation of multiple isolates. After the spots had dried, the plates were incubated at 35°-36° C. for 16-20 hours. Endpoints were assessed as the minimum inhibitory concentration (MIC) of antimicrobial agent.
as §2

[5] = ATCC13709, S. aureus ATCC 13709, read-out: Challenge str MIC
[6] = S. aureus ATCC 29213, read-out: MIC

| Compound | MIC (S. aureus ATCC 29213) [µg/mL] | MIC [1] [µg/mL] | MIC [2] [µg/mL] | MIC (S. haemolyticus (Meth^R)) [µg/mL] | MIC (E. faecium ATCC 35667) [µg/mL] | MIC (E. faecalis ATCC 29212) [µg/mL] | MIC (E. coli ATCC 25922) [µg/mL] | MIC (P. aeruginosa ATCC 27853) [µg/mL] | ED50 [3] [mg/kg] | MIC [4, 5] [µg/mL] | MIC (S. aureus ATCC 29213; [6]) [µg/mL] | MIC ([4]; ATCC13709, read-out: Challenge str MIC) [µg/mL] |
| --- | --- | --- | --- | --- | --- | --- | --- | --- | --- | --- | --- | --- |
| O=C(Cc1ccccc1)N[C@@H]1C(=O)N2C(C(=O)O)=C(Sc3cccnc3-n3cccn3)CS[C@H]12 [Cmpd 103, (7R)-7-[(Phenylacetyl)amino]-3-(2-(pyrazol-1-yl)pyridin-3-ylthio)-3-cephem-4-carboxylic acid] | 0.25 (≈ 0.507 µM) | 8 (≈ 16.2 µM) | 0.25 (≈ 0.507 µM) | 4 (≈ 8.1 µM) | 2 (≈ 4.05 µM) | 1 (≈ 2.03 µM) | > 32 | > 32 | 2.67 | 0.125 (≈ 0.253 µM) |  |  |
| CCC(CC)O/N=C(\C(=O)N[C@@H]1C(=O)N2C(C(=O)O)=C(Sc3ccnn3-c3ccccc3)CS[C@H]12)c1csc(N)n1 [Cmpd 104, (7R)-7-[(Z)-2-(aminothiazol-4-yl)-2-(3-pentyloxyimino)acetamido]-3-(1-N-phenylpyrazol-5-ylthio)-3-cephem-4-carboxylic acid] |  | 4 (≈ 6.52 µM) | 0.5 (≈ 0.815 µM) | 4 (≈ 6.52 µM) | 4 (≈ 6.52 µM) | 2 (≈ 3.26 µM) | 8 (≈ 13 µM) | 16 (≈ 26.1 µM) | > 10 | 0.5 (≈ 0.815 µM) | 0.5 (≈ 0.815 µM) |  |
| CSCC(=O)N[C@@H]1C(=O)N2C(C(=O)O)=C(Sc3ccnn3-c3ccccc3)CS[C@H]12 [Cmpd 106, (7R)-7-[(methylthioacetyl)amino]-3-(1-N-phenylpyrazol-5-ylthio)-3-cephem-4-carboxylic acid] |  | 8 (≈ 17.3 µM) | 0.125 (≈ 0.27 µM) | 32 (≈ 69.2 µM) | 4 (≈ 8.65 µM) | 4 (≈ 8.65 µM) | > 32 | > 32 | 0.72 |  | 0.25 (≈ 0.54 µM) | 0.125 (≈ 0.27 µM) |
| O=C(CC1CC1)N[C@@H]1C(=O)N2C(C(=O)O)=C(Sc3ccnn3-c3ccccc3)CS[C@H]12 [Cmpd 107, (7R)-7-[(cyclopropylacetyl)amino]-3-(1-N-phenylpyrazol-5-ylthio)-3-cephem-4-carboxylic acid] | 0.25 (≈ 0.548 µM) | 16 (≈ 35 µM) | 0.25 (≈ 0.548 µM) | 32 (≈ 70.1 µM) | 8 (≈ 17.5 µM) | 8 (≈ 17.5 µM) | > 32 | > 32 | 1.58 | 0.125 (≈ 0.274 µM) |  |  |
| Nc1nc(/C(=N/OCC2CC2)C(=O)N[C@@H]2C(=O)N3C(C(=O)O)=C(Sc4ccnn4-c4ccccc4)CS[C@H]23)cs1 [Cmpd 108, (7R)-7-[(Z)-2-(2-aminothiazol-4-yl)-2-(cyclopropylmethyloxyimino)acetamido]-3-(1-N-phenylpyrazol-5-ylthio)-3-cephem-4-carboxylic acid] |  | 8 (≈ 13.4 µM) | 0.5 (≈ 0.837 µM) | 16 (≈ 26.8 µM) | 16 (≈ 26.8 µM) | 16 (≈ 26.8 µM) | 4 (≈ 6.69 µM) | 16 (≈ 26.8 µM) | > 10 | 0.5 (≈ 0.837 µM) | 0.5 (≈ 0.837 µM) |  |
| O=C(CSc1ccncc1)N[C@@H]1C(=O)N2C(C(=O)O)=C(Sc3ccnn3-c3ccccc3)CS[C@H]12 [Cmpd 110, (7R)-7-[(4-pyridylthioacetyl)amino]-3-(1-N-phenylpyrazol-5-ylthio)-3-cephem-4-carboxylic acid] | 0.25 (≈ 0.476 µM) | 8 (≈ 15.2 µM) | 0.25 (≈ 0.476 µM) | > 16 | 2 (≈ 3.8 µM) | 2 (≈ 3.8 µM) | > 32 | > 32 | 3.45 | 0.25 (≈ 0.476 µM) |  |  |
| O=C(O)C1=C(Sc2ccnn2-c2ccccc2)CS[C@@H]2[C@H](NC(=O)C3SCCS3)C(=O)N12 [Cmpd 115, (7R)-7-[(2-dithiolanylcarbonyl)amino]-3-(1-N-phenylpyrazol-5-ylthio)-3-cephem-4-carboxylic acid] | 0.25 (≈ 0.493 µM) | 8 (≈ 15.8 µM) | 0.25 (≈ 0.493 µM) | 32 (≈ 63.2 µM) | 8 (≈ 15.8 µM) | 4 (≈ 7.89 µM) | > 32 | > 32 | 3.04 | 0.25 (≈ 0.493 µM) |  |  |
| Cc1nnc(SCC(=O)N[C@@H]2C(=O)N3C(C(=O)O)=C(Sc4ccnn4-c4ccccc4)CS[C@H]23)s1 [Cmpd 118] |  | 8 (≈ 14.6 µM) | 0.125 (≈ 0.229 µM) | 32 (≈ 58.5 µM) | 4 (≈ 7.32 µM) | 4 (≈ 7.32 µM) | > 32 | > 32 | 3.38 | 0.06 (≈ 0.11 µM) | 0.25 (≈ 0.457 µM) |  |
